Patent US5180742A, “Quinone derivatives, their production and use” (Takeda Chemical Industries, Ltd., priority 1984, dated 1993)

How the values were obtained:
[1] = test system: SRS-A generation in the rat peritoneal cavity; assay: Effects on immunologically stimulated generation of SRS-A in the rat peritoneal cavity; assay type: in vivo; conditions: 1 mg/kg intraperitoneal, 1 min before antigen
Experimental: Slow Reacting Substance of Anaphylaxis (SRS-A) Generation in Rat Peritoneal Cavity
Generation of SRS-A in rat peritoneal cavity was determined by the method of Orange et al. [J. Immunol., 105, 1087-1095 (1970)] Rat-anti-egg albumin antiserum wad diluted twice with saline, and 2 ml of it was intraperitoneally given to the rat. Two hours later, egg albumin 2 mg in 5 ml of Tyrode solution containing heparin ([…]) and gelatin (0.1%) was intraperitoneally administered. Fifteen minutes after the antigen challenge, the animals were killed by bleeding under ether anesthesia and the solution given into the peritoneal cavity was harvested. The solution was centrifuged at 900 g for 5 min. Two ml of the supernatent was mixed with 7 ml of cold absolute ethanol and the mixture stood for 30 min at 4° C. After centrifugation at 1,500 g for 10 min, the supernatant was evaporated. The residue was dissolved in 1 ml of saline. Amount of SRS-A was bioassayed using guinea pig ileum. Drug dissolved in a 1% dimethylsulfoxide was intraperitoneally given 1 min before the antigen challenge.

[2] = test system: experimental cerebral infarction model of Mongolian gerbils; assay: Anti-edema action in an experimental cerebral infarction model of Mongolian gerbil; assay type: in vivo; conditions: oral, 1 hour before carotid ligation
Experimental: Anti-Edema Action in an Experimental Cerebral Infarction Model of Mongolian Gerbil
Male Monglian gerbils (8-10 weeks of age) were used. Under light ether anesthesia, the right common carotid artery was ligated for 1 hour to induce experimental cerebral infarction, and then reperfused on removing the ligature. One hour after reperfusion, the animal was guillotined, the brain was excised, and divided into the left and right brain hemispheres. The wet weight of each hemisphere was determined, and then the dry weight was determined after drying for 24 hours at 96° C. The water content (%) of each hemisphere was estimated according to the following equation. [formula] In addition, neurological deficit symptoms were observed during ligation-and-reperfusion periods.
Test drugs were orally administered as a gum arabic suspension 1 hour before the common carotid artery ligation under an unanesthetized condition. Results

[3] = test system: ischemic convulsive seizure due to bilateral common carotid artery ligation in SHR rats; assay: Inhibitory action on induction of convulsive seizure in experimental cerebral infarction model of SHR rats; assay type: in vivo, spontaneously hypertensive rats; conditions: control 151 ± 5
Experimental: Inhibitory Action on Induction of Convulsive Seizure in an Experimental Cerebral Infarction Model of Spontaneously Hypertensive Rats
Cerebral ischemia was induced by simultaneous ligation of bilateral common carotid arteries in male spontaneously hypertensive (SHR) rats (about 22 weeks of age) under light pentobarbital anesthesia. Thereafter, over about 4 hours, the behaviour was observed under conscious state.
Test drugs were orally administered as a gum arabic suspension 1 hour before the ligation of bilateral common carotid arteries under an unanesthetized condition.

CC1=C(C)C(=O)C(C(CCCCCC(=O)O)c2ccccc2)=C(C)C1=O (stereo not shown) [Compound No. 50, 7-(3,5,6-trimethyl-1,4-benzoquinon-2-yl)-7-phenylheptanoic acid]
SRS-A generation, Inhibition (%) [1]: 72% | SRS-A generation ([1]; control 26.5 ± 3.9): 7.5 ± 2.0 LTD4 ng/rat | Incidence of appearance of neurological deficit symptoms ([2]; control 5/6): 1/6 | Water content, normal side (left) ([2]; control 80.1 ± 0.3): 79.8 ± 1.0% | Water content, infarct side (right) ([2]; control 81.3 ± 0.9): 80.3 ± 1.0% | Time to appearance of convulsive seizure ([3]; 3 mg/kg oral): 204 ± 7 min | Time to appearance of convulsive seizure ([3]; 10 mg/kg oral): 220 ± 9 min
